In US20250122190A1, “HALOGEN-SUBSTITUTED PYRIDAZINONE COMPOUND AND APPLICATION THEREOF” (MEDSHINE DISCOVERY INC., priority 2021, published 2025):

Tests used:
[1] = biological target: T1, hTRPC5-T478C (Homo sapiens, UniProt Q9UL62); test: hTRPC5-T478C FLIPR calcium flux IC50 assay; assay type: cell-based; details: hTRPC5-T478C-HEK cells, Englerin A as channel agonist
T1 sequence (Q9UL62 1-973): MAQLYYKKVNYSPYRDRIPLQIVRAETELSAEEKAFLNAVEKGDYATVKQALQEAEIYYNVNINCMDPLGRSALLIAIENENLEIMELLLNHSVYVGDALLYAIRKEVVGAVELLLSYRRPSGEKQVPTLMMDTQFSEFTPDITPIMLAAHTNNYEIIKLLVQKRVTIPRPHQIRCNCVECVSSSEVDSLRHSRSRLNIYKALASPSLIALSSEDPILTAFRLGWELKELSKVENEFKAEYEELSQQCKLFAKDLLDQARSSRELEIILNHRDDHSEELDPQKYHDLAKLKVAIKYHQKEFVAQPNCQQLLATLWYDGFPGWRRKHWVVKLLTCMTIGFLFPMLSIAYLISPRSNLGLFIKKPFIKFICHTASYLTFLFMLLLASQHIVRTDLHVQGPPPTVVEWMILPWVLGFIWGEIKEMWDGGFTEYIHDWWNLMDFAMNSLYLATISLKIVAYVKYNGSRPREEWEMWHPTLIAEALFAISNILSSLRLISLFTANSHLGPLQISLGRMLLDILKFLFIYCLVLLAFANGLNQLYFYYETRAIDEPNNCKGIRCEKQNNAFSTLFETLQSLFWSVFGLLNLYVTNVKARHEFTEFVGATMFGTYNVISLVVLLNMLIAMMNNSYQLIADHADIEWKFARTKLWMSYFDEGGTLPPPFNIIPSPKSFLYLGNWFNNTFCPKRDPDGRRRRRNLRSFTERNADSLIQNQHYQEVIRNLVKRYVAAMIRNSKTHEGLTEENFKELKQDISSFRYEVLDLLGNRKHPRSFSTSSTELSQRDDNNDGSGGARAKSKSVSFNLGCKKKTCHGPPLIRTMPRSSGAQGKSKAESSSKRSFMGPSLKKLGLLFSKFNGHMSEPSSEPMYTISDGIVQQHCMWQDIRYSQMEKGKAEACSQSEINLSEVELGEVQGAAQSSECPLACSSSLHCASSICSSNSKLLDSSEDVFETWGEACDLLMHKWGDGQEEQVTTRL
Experimental: (§1) Cell culture: hTRPC5-T478C-HEK cells were cultured in a humid environment in 5% CO2 at 37° C.
(§2) Cell culture medium ingredients: • DMEM, Supplier: Gibco, Catalog No. 11965-092; • FBS, Supplier: Gibco, Catalog No. 10099-141C, Concentration: 10%; • Pen/Strep, Supplier: Invitrogen, Catalog No. 15140-122, Concentration: 1%; • Zeocin, Supplier: Invitrogen, Catalog No. R25005, Concentration: 200 μg/mL; • Blasticidin S, Supplier: Invitrogen, Catalog No. R21001, Concentration: 5 μg/mL.
(§3) In general, the TRPC5-T478C cell line was passaged three times weekly. The dilution factor for each passage was 1:3. Once the cells reached about 80% confluence in the T-75 flask, the cell line was digested with trypsin for about 1 minute and the cell suspension was removed from the flask with a pipette. Depending on the dilution ratio, the removed cell suspension would be transferred to another T-75 flask containing cell culture medium. Note that in order to maintain the logarithmic growth of the cells, the confluence of the cells should be maintained at the subconfluent stage and the cells should be passaged once every 2 to 3 days depending on the proliferation rate of the cell line.
(1) Preparation of cell plate: the cells were separated according to the above-mentioned passaging and the cell density and viability were determined using a cell counter. The volume of the cell suspension was adjusted with a cell culture medium. After the density reached to the plating density, 1 μg/mL tetracycline was added to induce hTRPC5-T478C channel expression. The induced hTRPC5-T478C cells were then seeded onto poly-D-lysine (PDL)-coated 384-well plates at a density of 20000 cells/well (30 μL/well). Then the cells were cultured overnight in a cell culture incubator.
(2) Preparation of compound plate: the compounds were generally diluted with DMSO, prepared into a mother liquor and stored in a −20° C. refrigerator. A compound plating program was set on the ECHO processor, and the compounds were plated with ECHO according to the concentration gradient that was already set. In general, 9 concentrations were included with the highest concentration at 10 μM, 3-fold dilution, and 2 replicate wells. Englerin A was used as the channel agonist.
(3) On-machine testing: the cell plates and compound plates were prepared according to the above-mentioned methods. After the cell confluence of the cell plate reached 80%-90%, the cells were removed from the incubator and the testing started. Ca5 dye (Molecular Devices #R8185) was formulated with test buffer. After the cell plate culture medium was removed with Bravo, 25 μL of Ca5 dye was added to each well, and the plate was incubated for 1 hour. After 1 hour, the cell plate and compound plate were placed in FLIPR^TETRA (Molecular Devices, USA) for FLIPR detection.
Data analysis was performed using Excel 2013 (Microsoft, USA) software and GraphPad Prism 6.01 software. The maximum signal was generated by FLIPR software. Data analysis was performed using Excel (2013) and Prism 6.01. Data quality and data stability were controlled using S/B>2.50 and Z factor>0.50. The calculation formula was as follows: S/B=Avg100%/Avg0%; Z factor=1−(3*SD100%+3*SDO %)/|Avg100%-Avg0%.

[2] = biological target: T1, hTRPC5-T478C; test: hTRPC5-T478C patch clamp IC50 assay; assay type: cell-based; details: hTRPC5-T478C-HEK cells, whole-cell patch clamp, Englerin A agonist
Experimental: as §1, §2, §3
(1) Extracellular fluid: sodium chloride (145 mmol/L), potassium chloride (4 mmol/L), magnesium chloride (1.5 mmol/L), glucose (10 mmol/L), hydroxyethyl piperazineethanesulfonic acid (HEPES, 10 mmol/L). The extracellular fluid was adjusted to pH 7.4 with NaOH, and the osmotic pressure was adjusted to about 305 mOsm/L with pure water or sucrose.
(2) Intracellular fluid: cesium chloride (140 mmol/L), ethylene glycol diethyl ether diamine tetraacetic acid (EGTA, 1 mmol/L), magnesium chloride (2 mmol/L), glucose (10 mmol/L), hydroxyethyl piperazineethanesulfonic acid (HEPES, 10 mmol/L). The intracellular fluid was adjusted to pH 7.2 with […], and the osmotic pressure was adjusted to about 295 mOsm/L with pure water or sucrose.
(3) The extracellular fluid was required to be formulated once a week, and the intracellular fluid was required to be subpackaged and stored at −20° C. after formulation.
Positive reference compounds Englerin A and 2-aminoethoxydiphenyl borate (2-APB) were dissolved in 100% DMSO and stored as a 10 mM working solution after formulation. The test compounds were dissolved in 100% DMSO and stored as a 10 mM working solution after formulation. The final concentration of DMSO in the test solution should be less than 0.3%.
Whole-cell patch clamping was performed at room temperature. The electrical signals recorded using an EPC 10 USB amplifier (HEKA Elektronik, Germany) were low-pass filtered at 3 kHz and finally recorded in PatchMaster 2×90.5 software (HEKA Elektronik, Germany). In this step, the quality control standards were that the cell high-resistance seal was formed at a value greater than 500 MOhms and the detection current was greater than 0.3 nA.
The recording electrode was a borosilicate glass capillary (GC150tF-10, Harvard Apparatus Co., UK), which was pulled by a vertical puller (NARISHIGE PC-10, Japan) and polished. In this step, the quality control standard was that the electrode resistance was between 2 to 5 MΩ.
During whole-cell patch clamp recordings, a continuous filling system (BT100-2J, LongerPump, China) was used to continuously perfuse extracellular fluid. The filling system was mounted on the stage of an upright microscope (FN—S2N, Nikon, Japan), and the filling tip was manually positioned under the microscope.
The voltage instructions for hTRPC5-T478C current amplitude detection were as follows: the cells were clamped as follows: the clamping potential changed in a stepped manner from −40 mV to −80 mV (duration: 50 ms); then the clamping voltage ramped up to +80 mV, and the whole process lasted for 200 ms; then clamping was performed at +80 mV for 50 ms, and finally, the voltage returned to the clamping potential of −40 mV. […]

[3] = test system: TRPC5; details: TRPC5 inhibition; cited from earlier work
[4] = test system: TRPC5; details: TRPC5 inhibition; cited from earlier work; remark: listed apart in the source

Row | IC50 [1] | IC50 [2] | Structure (SMILES) | LPS-induced proteinuria [3] | podocyte cytoskeletal remodeling [4] | protamine sulfate-induced podocyte injury [4]
1 | 56 nM | – | O=c1[nH]ncc(N2CCc3c(ncnc3Sc3ccc(F)cc3Cl)C2)c1Cl [Compound WX017] | – | – | –
2 | 12 nM | – | CC(O)c1nc2c(c(Sc3ccc(F)cc3C(F)(F)F)n1)CCN(c1cn[nH]c(=O)c1Cl)C2 (stereo not shown) [Compound WX014] | – | – | –

More lines, now with the values behind:

Row | Structure (SMILES) | IC50 [1] | IC50 [2] | LPS-induced proteinuria [3] | podocyte cytoskeletal remodeling [4] | protamine sulfate-induced podocyte injury [4]
3 | C=C(c1ccc(F)cc1C(F)(F)F)c1ncnc2c1CCN(c1cn[nH]c(=O)c1Cl)C2 [Compound WX003] | 70 nM | 89.4 nM | – | – | –
4 | Cc1cc(N2CCCCC2)nc2ccccc12 [ML204] | – | – | significantly reduces | protects | inhibits
5 | c1ccc(Cn2c(NCc3ccco3)nc3ccccc32)cc1 [AC1903] | – | – | significantly reduces | protects | inhibits
